In ChEMBL document CHEMBL1201862, “PubChem BioAssay data set” (2004):
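Tested at 5 concentrations; 48 h exposure; 96-well plates; endpoints linearly interpolated, else capped at highest concentration. Here, GI50 denotes the concentration required for 50% inhibition of growth.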 The source made the active and inactive calls. Cut-off read from the data, not from the text of the source: active = GI50 up to about 1.1 µM and inactive = higher.

Assays:
Experiment in all cases: DTP human tumour cell line panel, 48 h
NCI-H226 = system: NCI-H226
TK-10 = system: TK-10
BT-549 = system: BT-549
OVCAR-5 = system: OVCAR-5
MDA-MB-231 = system: MDA-MB-231
HCT-116 = system: HCT-116
KM12 = system: KM12
SK-MEL-28 = system: SK-MEL-28
K562 = system: K562
IGROV-1 = system: IGROV-1
COLO 205 = system: COLO 205
HOP-92 = system: HOP-92
SF-295 = system: SF-295
M14 = system: M14
A498 = system: A498
786-0 = system: 786-0
SF-539 = system: SF-539
CAKI-1 = system: CAKI-1
SW-620 = system: SW-620
HT-29 = system: HT-29
SN12C = system: SN12C
SK-OV-3 = system: SK-OV-3
RPMI-8226 = system: RPMI-8226
SK-MEL-2 = system: SK-MEL-2
SNB-75 = system: SNB-75
MDA-N = system: MDA-N
SF-268 = system: SF-268
Malme-3M = system: Malme-3M
UO-31 = system: UO-31
LOX IMVI = system: LOX IMVI
HCT-15 = system: HCT-15
NCI-H522 = system: NCI-H522
T47D = system: T47D
OVCAR-3 = system: OVCAR-3
NCI-H23 = system: NCI-H23
OVCAR-4 = system: OVCAR-4
CCRF-CEM = system: CCRF-CEM
U-251 = system: U-251
ACHN = system: ACHN
MCF7 = system: MCF7
Hs-578T = system: Hs-578T
NCI-H460 = system: NCI-H460
MDA-MB-435 = system: MDA-MB-435
OVCAR-8 = system: OVCAR-8
A549 = system: A549
DU-145 = system: DU-145
HCC 2998 = system: HCC 2998
HOP-62 = system: HOP-62
EKVX = system: EKVX
MOLT-4 = system: MOLT-4
UACC-257 = system: UACC-257
RXF 393 = system: RXF 393
NCI/ADR-RES = system: NCI/ADR-RES
SNB-19 = system: SNB-19
PC-3 = system: PC-3
UACC-62 = system: UACC-62
SK-MEL-5 = system: SK-MEL-5
HL-60 = system: HL-60

## CSc1nc2c(c(N(C)C)n1)C(O)n1c(nc3ccccc31)S2 (stereo not drawn)
NCI-H226
  GI50: > 100 µM (inactive)
TK-10
  GI50: > 53.2 µM (inactive)
BT-549
  GI50: 67 µM (inactive)
OVCAR-5
  GI50: > 100 µM (inactive)
MDA-MB-231
  GI50: 28 µM (inactive)
HCT-116
  GI50: 23 µM (inactive)
KM12
  GI50: > 100 µM (inactive)
SK-MEL-28
  GI50: 46.2 µM (inactive)
K562
  GI50: > 100 µM (inactive)
IGROV-1
  GI50: 30.2 µM (inactive)
COLO 205
  GI50: > 100 µM (inactive)
HOP-92
  GI50: 43.3 µM (inactive)
SF-295
  GI50: 38.1 µM (inactive)
M14
  GI50: > 65.3 µM (inactive)
A498
  GI50: > 100 µM (inactive)
786-0
  GI50: 26.8 µM (inactive)
SF-539
  GI50: 15.2 µM (inactive)
CAKI-1
  GI50: > 58.5 µM (inactive)
SW-620
  GI50: > 100 µM (inactive)
HT-29
  GI50: > 100 µM (inactive)
SN12C
  GI50: > 100 µM (inactive)
SK-OV-3
  GI50: 16.5 µM (inactive)
RPMI-8226
  GI50: > 100 µM (inactive)
SK-MEL-2
  GI50: > 100 µM (inactive)
SNB-75
  GI50: 17.1 µM (inactive)
MDA-N
  GI50: > 55.1 µM (inactive)
SF-268
  GI50: 32.7 µM (inactive)
Malme-3M
  GI50: 28.6 µM (inactive)
UO-31
  GI50: > 50.2 µM (inactive)
LOX IMVI
  GI50: 9.38 µM (inactive)
HCT-15
  GI50: > 100 µM
NCI-H522
  GI50: 12 µM (inactive)
T47D
  GI50: 38.1 µM (inactive)
OVCAR-3
  GI50: 29.2 µM (inactive)
NCI-H23
  GI50: 31.3 µM (inactive)
OVCAR-4
  GI50: 4.95 µM (inactive)
CCRF-CEM
  GI50: > 100 µM (inactive)
U-251
  GI50: > 22.7 µM (inactive)
ACHN
  GI50: > 83.9 µM (inactive)
MCF7
  GI50: 47 µM (inactive)
Hs-578T
  GI50: 14.1 µM (inactive)
NCI-H460
  GI50: 73.5 µM (inactive)
MDA-MB-435
  GI50: > 100 µM (inactive)
OVCAR-8
  GI50: 14.6 µM (inactive)
A549
  GI50: > 71.9 µM (inactive)
DU-145
  GI50: 69.7 µM (inactive)
HCC 2998
  GI50: > 100 µM (inactive)
HOP-62
  GI50: 23 µM (inactive)
EKVX
  GI50: > 100 µM (inactive)
MOLT-4
  GI50: > 100 µM (inactive)
UACC-257
  GI50: > 100 µM (inactive)
RXF 393
  GI50: 21.3 µM (inactive)
NCI/ADR-RES
  GI50: 37.8 µM (inactive)
SNB-19
  GI50: 25.4 µM (inactive)
PC-3
  GI50: > 100 µM (inactive)
UACC-62
  GI50: > 85.9 µM (inactive)
SK-MEL-5
  GI50: 56.2 µM (inactive)

## CCNc1nc(N)c(C(=O)c2cccs2)s1
NCI-H226
  GI50: 24.2 µM (inactive)
TK-10
  GI50: 48 µM (inactive)
BT-549
  GI50: 20.8 µM (inactive)
OVCAR-5
  GI50: 31.3 µM (inactive)
MDA-MB-231
  GI50: 50.4 µM (inactive)
HCT-116
  GI50: 9.86 µM (inactive)
KM12
  GI50: 11.8 µM (inactive)
SK-MEL-28
  GI50: 31 µM (inactive)
K562
  GI50: 25.9 µM (inactive)
IGROV-1
  GI50: 10.6 µM (inactive)
COLO 205
  GI50: 7.05 µM (inactive)
HOP-92
  GI50: 41.2 µM (inactive)
SF-295
  GI50: 34 µM (inactive)
M14
  GI50: 37.8 µM (inactive)
A498
  GI50: 31 µM (inactive)
786-0
  GI50: 26.6 µM (inactive)
SF-539
  GI50: 15.5 µM (inactive)
CAKI-1
  GI50: 8.69 µM (inactive)
SW-620
  GI50: 8.59 µM (inactive)
HT-29
  GI50: 17.2 µM (inactive)
HL-60
  GI50: 4.1 µM (inactive)
SN12C
  GI50: 30 µM (inactive)
SK-OV-3
  GI50: 36.4 µM (inactive)
SK-MEL-2
  GI50: 16.5 µM (inactive)
SNB-75
  GI50: 10.4 µM (inactive)
MDA-N
  GI50: 25.6 µM (inactive)
SF-268
  GI50: 32.8 µM (inactive)
Malme-3M
  GI50: 43.3 µM (inactive)
UO-31
  GI50: 38 µM (inactive)
LOX IMVI
  GI50: 18.4 µM (inactive)
HCT-15
  GI50: 14.9 µM
NCI-H522
  GI50: 26.3 µM (inactive)
T47D
  GI50: 19.1 µM (inactive)
OVCAR-3
  GI50: 22 µM (inactive)
NCI-H23
  GI50: 20.9 µM (inactive)
OVCAR-4
  GI50: 21.1 µM (inactive)
U-251
  GI50: 22.5 µM (inactive)
ACHN
  GI50: 22.3 µM (inactive)
MCF7
  GI50: 22 µM (inactive)
Hs-578T
  GI50: 38.1 µM (inactive)
NCI-H460
  GI50: 20.4 µM (inactive)
MDA-MB-435
  GI50: 20.9 µM (inactive)
OVCAR-8
  GI50: 24.7 µM (inactive)
A549
  GI50: 29.8 µM (inactive)
DU-145
  GI50: 8.99 µM (inactive)
HCC 2998
  GI50: 34.3 µM (inactive)
HOP-62
  GI50: 30.9 µM (inactive)
EKVX
  GI50: 26.2 µM (inactive)
MOLT-4
  GI50: 17.6 µM (inactive)
UACC-257
  GI50: 46.9 µM (inactive)
RXF 393
  GI50: 3.42 µM (inactive)
NCI/ADR-RES
  GI50: 35 µM (inactive)
SNB-19
  GI50: 40.7 µM (inactive)
PC-3
  GI50: 31.5 µM (inactive)
UACC-62
  GI50: 24.2 µM (inactive)
SK-MEL-5
  GI50: 18.1 µM (inactive)
